# Measured values: patent publication US11536729B2, “Method of identifying novel protein aggregation inhibitors based on chemical kinetics” (Cambridge Enterprise Limited, priority 2016, dated 2022)
# Entries after “also recorded” stand apart in the source; their conditions may differ.
# Tests used:
# Aβ42 [1] = target: T1, Aβ42 (Homo sapiens, UniProt P05067); assay: ThT Aβ42 aggregation kinetics with 10% pre-formed fibril seeds (elongation dominant); format: biochemical; conditions: 2 μM Aβ42, 10-fold excess
# T1 construct: The recombinant Aβ (M1-42) peptide; made in house; host or cells: E. coli BL21 Gold (DE3)
# T1 sequence (P05067 672-713 limits assumed): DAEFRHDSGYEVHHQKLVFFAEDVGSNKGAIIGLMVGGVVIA
# Description: (§1) Samples were then collected from the wells into low-binding tubes and sonicated for 2 min in a sonicator bath at room temperature. Under the considered conditions (i.e. 4 μM Aβ42), the monomer concentration is negligible at equilibrium (31). The final concentration of fibrils, in monomer equivalents, was considered equal to the initial concentration of monomer. Fibrils were then added to freshly prepared monomer in order to reach either 5% or 10% fibrils final concentration.
# (§2) Assays were initiated by placing the 96-well plate at 37° C. under quiescent conditions in a plate reader (Fluostar Omega, Fluostar Optima or Fluostar Galaxy, BMGLabtech, Offenburg, Germany). The ThT fluorescence was measured through the bottom of the plate with a 440 nm excitation filter and a 480 nm emission filter. The ThT fluorescence was followed for three repeats of each sample. […]
# [2] = system: C. elegans CL2122 (control-worm); assay: C. elegans motility assay, control-worm model; design: species or system Caenorhabditis elegans; conditions: in vivo
# Description: Standard conditions were used for Caenorhabditis elegans propagation at 20° C. (53). Briefly, animals were synchronized by hypochlorite bleaching, hatched overnight in M9 buffer, and subsequently cultured on nematode growth medium (NGM, USP agar) plates seeded with the E. coli strain OP50. Saturated cultures of OP50 were grown by inoculating 50 mL of LB medium with OP50 and incubating the culture for 16 h at 37° C. NGM plates were seeded with bacteria by adding 350 μl of saturated OP50 to each plate and leaving the plates at room temperature for 2-3 days. […]
# (§3) All populations were cultured at 20° C. and developmentally synchronized from a 4 h egg-lay. At 64-72 h post egg-lay (time zero) individuals were shifted to 23° C. or 25° C., and body movement assessed over time as indicated. At different ages, animals were washed out of the plates with M9 and spread over an un-seeded 6 cm plate, after which their movements were recorded at 30 fps using a home-made microscopic setup, at 0.75× magnification, for 30 s or 1 min. 200 animals were counted per experiment unless stated otherwise. […]
# (§4) Videos were elaborated using ImageJ (National Institutes of Health, Bethesda, Md., USA), and body bends were quantified using the wrMTrck plug-in (http://www.phage.dk/plugins/wrmtrck.html), developed by Jesper Søndergaard Pedersen.
# [3] = system: C. elegans GMC101 (Aβ-worm); assay: NIAD-4 staining of amyloid aggregates in living C. elegans; format: in vivo, Caenorhabditis elegans
# Description: Live transgenic animals were incubated with NIAD-4 over a range of concentrations and times, and it was empirically determined that incubation of living animals with 1 μM NIAD-4 (0.1% DMSO in M9 buffer) for four hours at room temperature gave robust and reproducible staining. After staining, animals were Let recover on NGM plates for about 24 hrs to allow destaining via normal metabolism. Stained animals were mounted on 2% agarose pads containing 40 mM NaN3 as anaesthetic on glass microscope slides for imaging. Images were captured with a Zeiss Axio Observer.D1 fluorescence microscope (Carl Zeiss Microscopy GmbH, Jena, Germany) with a 20× objective and a 49004 ET-CY3/TRITC filter (Chroma Technology Corp, Bellows Falls, Vt., USA). Fluorescence intensity was calculated using ImageJ software (National Institutes of Health, Bethesda, Md., USA), and then normalized as the corrected total cell fluorescence (CTCF). Only the head region was considered, due to the high background signal in the guts. All experiments were carried out in triplicate and the data from one representative experiment are shown. Statistical significance was determined using t tests.
# [4] = system: C. elegans GMC101 (Aβ-worm); assay: C. elegans motility assay (body bends), Aβ-worm model; format: in vivo, Caenorhabditis elegans
# Description: Standard conditions were used for Caenorhabditis elegans propagation at 20° C. (53). Briefly, animals were synchronized by hypochlorite bleaching, hatched overnight in M9 buffer, and subsequently cultured on nematode growth medium (NGM, USP agar) plates seeded with the E. coli strain OP50. Saturated cultures of OP50 were grown by inoculating 50 mL of LB medium with OP50 and incubating the culture for 16 h at 37° C. NGM plates were seeded with bacteria by adding 350 μl of saturated OP50 to each plate and leaving the plates at room temperature for 2-3 days. On day 3 after synchronization, animals were placed on NGM plates containing 5-fluoro-2′deoxy-uridine (FUDR) ([…], unless stated otherwise) to inhibit growth of offspring.
# The following strains were used: dvls100[unc-54p::A-beta-1-42::unc-54 3′-UTR+mtl-2p::GFP] (GMC101). mtl-2p::GFP produces constitutive expression of GFP in intestinal cells. unc-54p::A-beta-1-42 expresses full-length human Aβ42 peptide in bodywall muscle cells that aggregates in vivo. Shifting L4 or young adult animals from 20 C° to 25 C° causes paralysis dvls15[pPD30.38 (unc-54 vector)+mtl-2::GFP (pCL26)] (CL2122), control strain for GMC101 (57). Phenotype apparently WT. C. elegans var Bristol (N2). Generation time is about 3 days. Brood size is about 350. Isolated from mushroom compost near Bristol, England. […]
# as §3, §4
# Aβ42 [5] = target: T1, Aβ42; assay: ThT Aβ42 aggregation kinetics with 1-5% pre-formed fibril seeds (surface-catalyzed secondary nucleation); format: biochemical; conditions: 2 μM Aβ42, 0.5- and 5-fold excess
# Description: For the seeded experiments, preformed fibrils were prepared just prior to the experiment. Kinetic experiments were set up just as above for a […] Aβ42 samples in 20 mM sodium phosphate buffer, pH 8 with 200 μM EDTA, 0.02% NaN3 and 20 μM ThT. The ThT fluorescence was monitored for 3 hours to verify the formation of fibrils.
# as §1, §2
# For the seeded experiments, preformed fibrils were prepared just prior to the experiment. […] The ThT fluorescence was monitored for 3 hours to verify the formation of fibrils. […]
compound,measurement,setting,value
C=C(c1ccc(C(=O)O)cc1)c1cc2c(cc1C)C(C)(C)CCC2(C)C [bexarotene],effect on aggregation kinetics with 10% fibril seeds,Aβ42 [1],no effect was observed
same,effect in control-worm model,[2],did not show any effects
same,time for which formation of Aβ42 fibrils was suppressed,[3]; 10 μM,9 days of adulthood
same,level of aggregates (NIAD-4 fluorescence),[3]; Aβ-worm model in the presence of bexarotene,essentially no aggregates being detected
same,motility (frequency of body bends) of Aβ-worms,"[4]; 10 μM, two bursts at L1 and L4 larval stages",maintained completely; also recorded: Complete recovery
same,"motility of Aβ-worms, concentration dependence",[4]; 5 to 10 μM added at larval stages,concentration-dependent maintenance
same,effect on motility of Aβ-worms when added only at day 2,[4]; added only at day 2,did not show any detectable effect
same,effect on aggregation kinetics with 5% pre-formed fibril seeds,Aβ42 [5],concentration-dependent bexarotene-induced delay
